Data from patent publication US20260325464A1, “COMPOSITIONS FOR MODULATING THE EXPRESSION OF AQUAPORINS IN NEURODEGENERATIVE DISORDERS” (priority 2023, published 2026).

Tests used:
Type in all cases: in vivo, rat
Alzheimer's disease [1] = experiment: Elevated plus maze (EPM) test in rats with AlCl3-induced Alzheimer's disease; settings: for EPM at 16th day Transfer Latency / EPM at 17th day Transfer Latency: p.o. + AlCl3 (100 mg/kg, i.p.), Mean ± SEM, n = 6
Description: Elevated plus maze (EPM)—Elevated plus maze (EPM)—This test was performed as per reported protocol (Bhuvanendran et al., Amelioration of cognitive deficit by Embelin in a Scopolamine-induced Alzheimer's disease-like condition in a rat model. Front Pharmacol. 2018:9(6):1-12 and Biradar et al., (2020) Experimental validation and network pharmacology evaluation to decipher the mechanism of action of Erythrina variegata L. bark against scopolamine-induced memory impairment in rats. Adv Tradit Med. 2020:26:1-4). EPM contains 2 closed and 2 open arms (four arms; equal dimensions of 50×10 cm). These 4 arms connect at central with a 10×10 cm square gap as an initial point. The transfer latency (TL) was recorded via stopwatch by keeping rats independently toward one side of the open arm. The EPM TL cut-off was set to 60 s throughout the study. […] Index of memory improvement is measured as a drop of transfer Latency (TL) by test drug.
The elevated plus maze is a test that is widely used to assess the anti-anxiety effects of test substances. As the test measures open arm activity, an increase in open arm activity (duration and/or entries) reflects anti-anxiety behaviour (Walf et al., The use of the elevated plus maze as an assay of anxiety-related behavior in rodents, Nat Protoc. 2007; 2(2): 322-328). In the present study, inducing Alzheimer's in the animals increased their anxiety which was reduced by the administration on Gingerenone A (Table 3).

Alzheimer's disease [2] = experiment: Morris water maze (MWM) test in rats with AlCl3-induced Alzheimer's disease; settings: for Escape Latency Time: p.o. + AlCl3 (100 mg/kg, i.p.), MWM at 17th day, Mean ± SEM, n = 6
Description: Morris water maze (MWM)—This test was performed as per protocol established by Ishola et al., Protective role of Spondiasmombin leaf and Cola acuminata seed extracts against scopolamine-induced cognitive dysfunction. Alexandria J Med. 2018; 54(1):27-39. MWM is a round water tank “diameter: 110 cm and height: 60 cm” consisting of a white surface and that is filled using opaque water (Temp. 26±2° C.) to a distance (depth) of 30 cm. The MWM tank circle is divided into 4 equal quadrants [North Quadrant 1, East Quadrant 2, West Quadrant 3, and South Quadrant 4]. Further, it consists of a 10 cm diameter platform in a constant position. Index of memory improvement is measured by the Escape Latency Time (ELT)—which is the time the animal takes to find the platform.
The MWM plays an important role in the testing of learning and memory in rodent models of Alzheimer's Disease. It is used to test hippocampal-dependent learning, including acquisition of spatial memory and long-term spatial memory (Bromley-Brits et al., Morris water maze test for learning and memory deficits in Alzheimer's disease model mice, J Vis Exp., 2011 Jul. 20:(53):2920). In this study, learning was impaired in the Alzheimer's group.

β-amyloid (1-42) = β-amyloid (1-42) level in plasma (ELISA), AlCl3 Alzheimer's model; settings: for β-amyloid: p.o. + AlCl3 (100 mg/kg, i.p.), plasma, Mean ± SEM, n = 6
From the text: (§1) The levels of Tau, β-amyloid (1-42) and Apolipoprotein E were estimated. using ELISA kit (Krishgen Biosystems, India). All the protein biomarkers of AD were elevated in the AD control group.

Tau = Tau level in plasma (ELISA), AlCl3 Alzheimer's model; settings: 5, 10 and 20 mg/kg, FIG. 2
From the text: as §1

Parkinson's disease = experiment: Open field test in rats with reserpine-induced Parkinson's disease; settings: for Freezing / Number of central explorations / Number of squares crossed: p.o. + Reserpine (4 mg/kg, s.c.), open field, Mean ± SEM, n = 6
From the text: The induction of Parkinson's disease and measurement of other parameters were done as per the reported protocol (Santos et al., Cognitive, motor and tyrosine hydroxylase temporal impairment in a model of parkinsonism induced by reserpine. Behav Brain Res. 2013; 253:68-77 and Shishehbore et al. A novel kinetic spectrophotometric method for the determination of dopamine in biological and pharmaceutical samples. J Chem. 2013; 2013:1-6). Induction of Parkinson's disease was done by administering Resperine, which inhibits the monoamine vesicular transporters, thus decreasing the levels of monoamine neurotransmitters in the brain. Following pretreatment for 14 days with Gingerenone A, the rat groups received subcutaneous injections of reserpine (4 mg/kg) for the final five days of the treatment regimen. Resperine (5 mg) was dissolved in 1 ml of 1% acetic acid and then diluted tenfold with distilled water to achieve a final concentration of 500 μg/ml. The normal control group received saline with 1% acetic acid […], administered from day 10 to day 14. Thirty minutes following the administration of reserpine on the 14th day, behavioural assessments were conducted using the Open Field test, Y Maze, and Catalepsy tests to evaluate changes. Rats administered with Carbidopa, a known drug for the management of Parkinson's disease was also used for comparison. Upon completion of the study, brains were harvested for biochemical analyses and histopathological studies. The experimental group is depicted in table 10.
Open filed test—The test was conducted as per protocol described by Saleem et al., Pharmacological Potential of the Standardized Methanolic Extract of Prunus armeniaca L. in the Haloperidol-Induced Parkinsonism Rat Model. Evid Based Complement Alternat Med. 2022:29; 3697522. doi: 10.1155/2022/3697522. This test was conducted to assess the locomotor and exploratory behaviors of the experimental rats. A square-shaped wooden box measuring 100 cm in width, 100 cm in […], and 45 cm in height was constructed using plywood material, painted white, with a black-lined floor divided into 25 blocks. The rats were placed in the center of the field for a duration of 5 minutes and allowed to explore the box freely. The number of squares crossed, both centrally and horizontally, along with the total number of crossings, instances of defecation, freezing behavior, and postures were recorded during this period. Normal animals readily and quickly acclimate to the chamber and try to explore the center area of the squares.

COc1cc(CC/C=C/C(=O)CCc2ccc(O)c(OC)c2)ccc1O [Gingerenone A]
EPM at 16th day Transfer Latency (Alzheimer's disease [1]; 5 mg/kg): 25.70 ± 0.88 s | EPM at 17th day Transfer Latency (Alzheimer's disease [1]; 5 mg/kg): 25.21 ± 1.04 s | EPM at 16th day Transfer Latency (Alzheimer's disease [1]; 10 mg/kg): 21.76 ± 1.03 s | EPM at 17th day Transfer Latency (Alzheimer's disease [1]; 10 mg/kg): 19.37 ± 0.47 s | EPM at 16th day Transfer Latency (Alzheimer's disease [1]; 20 mg/kg): 19.38 ± 0.87 s | EPM at 17th day Transfer Latency (Alzheimer's disease [1]; 20 mg/kg): 18.59 ± 0.86 s | anxiety in EPM (in words) (Alzheimer's disease [1]; AlCl3 model, Table 3): reduced | Escape Latency Time (Alzheimer's disease [2]; 5 mg/kg): 34.47 ± 3.87 s | Escape Latency Time (Alzheimer's disease [2]; 10 mg/kg): 27.73 ± 2.18 s | Escape Latency Time (Alzheimer's disease [2]; 20 mg/kg): 27.82 ± 2.63 s | learning and memory in MWM (in words) (Alzheimer's disease [2]; AlCl3 model, Table 4): significantly improved learning and memory | β-amyloid (β-amyloid (1-42); 5 mg/kg): 10.74 ± 0.035 pg/mL | β-amyloid (β-amyloid (1-42); 10 mg/kg): 8.04 ± 0.023 pg/mL | β-amyloid (β-amyloid (1-42); 20 mg/kg): 7.88 ± 0.065 pg/mL | levels of β-amyloid (in words) (β-amyloid (1-42); AlCl3 model, Table 7): significantly reduced | Tau levels in plasma (in words) (Tau): significantly reduced | Freezing (Parkinson's disease; 5 mg/kg): 15.29 ± 0.35 s | Number of central explorations (Parkinson's disease; 5 mg/kg): 12.57 ± 1.05 | Number of squares crossed (Parkinson's disease; 5 mg/kg): 21.62 ± 2.47 | Freezing (Parkinson's disease; 10 mg/kg): 10.38 ± 0.62 s | Number of central explorations (Parkinson's disease; 10 mg/kg): 17.34 ± 1.20 | Number of squares crossed (Parkinson's disease; 10 mg/kg): 27.45 ± 2.06 | Freezing (Parkinson's disease; 20 mg/kg): 9.02 ± 0.45 s | Number of central explorations (Parkinson's disease; 20 mg/kg): 17.27 ± 0.98 | Number of squares crossed (Parkinson's disease; 20 mg/kg): 26.26 ± 2.27 | locomotory and exploratory behaviors (in words) (Parkinson's disease; reserpine model, Table 11): significantly improved the behavior
